Experimental findings from patent US20180127374A1, “BE[…] AS OPIOID RECEPTORS MODULATORS” (Purdue Pharma L.P., priority 2012, published 2018) are described below.

A word on the Ki: it is the dissociation constant of the complex between target and ligand, obtained from inhibition or displacement. The EC50 is the concentration giving half of the maximal effect. For orientation: Emax means the greatest response seen or fitted, relative to the assay's reference.

Assay [1] has as its target T1, κ opioid receptor (Homo sapiens, UniProt P41145). In words: κ-opioid receptor radioligand dose displacement binding assay. More on the design: expressed in transfected cells; host or cells: HEK-293. As to the method: Membranes from recombinant HEK-293 cells expressing the human κ opioid receptor (κ) (cloned in house) were prepared by lysing cells in ice cold hypotonic buffer (2.5 mM MgCl2, 50 mM HEPES, pH 7.4) (10 mL/10 cm dish) followed by homogenization with a tissue grinder/Teflon pestle. Membranes were collected by centrifugation at 30,000×g for 15 min at 4° C. and pellets were resuspended in hypotonic buffer to a final concentration of 1-3 mg/mL. Protein concentrations were determined using the BioRad protein assay reagent with bovine serum albumen as standard. Aliquots of κ receptor membranes were stored at […]

Assay [2] concerns the target T2, μ-opioid receptor (Homo sapiens, UniProt P35372). In words: μ-opioid receptor radioligand dose-displacement binding assay. How it is done: Radioligand dose-displacement binding assays for μ-opioid receptors used 0.3 nM [^3H]-diprenorphine (Perkin Elmer, Shelton, Conn.), with […] membrane protein/well in a final volume of […] binding buffer (10 mM MgCl2, 1 mM EDTA, 5% DMSO, 50 mM HEPES, pH 7.4). Reactions were carried out in the absence or presence of increasing concentrations of unlabeled naloxone. All reactions were conducted in 96-deep well polypropylene plates for 2 hr at room temperature. […] The data were analyzed using the one-site competition curve fitting functions in GraphPad PRISM™ v. 3.0 or higher (San Diego, Calif.), or an in-house function for one-site competition curve-fitting.
Target sequence in this assay (P35372 whole entry): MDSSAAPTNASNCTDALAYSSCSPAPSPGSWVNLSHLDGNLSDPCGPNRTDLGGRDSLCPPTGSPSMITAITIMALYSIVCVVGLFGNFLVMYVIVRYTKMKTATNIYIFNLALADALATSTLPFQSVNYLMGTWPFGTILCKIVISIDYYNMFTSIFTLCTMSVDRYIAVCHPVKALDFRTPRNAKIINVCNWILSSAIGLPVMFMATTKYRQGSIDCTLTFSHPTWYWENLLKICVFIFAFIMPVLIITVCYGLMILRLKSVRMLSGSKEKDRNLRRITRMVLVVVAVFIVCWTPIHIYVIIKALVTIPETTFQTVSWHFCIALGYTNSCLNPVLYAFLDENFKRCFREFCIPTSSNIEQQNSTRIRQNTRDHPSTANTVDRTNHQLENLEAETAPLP

The target in assay [3] is T2, μ-opioid receptor. In words: μ-opioid receptor [35S]GTPγS functional assay. It is filed as biochemical. The arrangement: purchased Perkin Elmer, Shelton, Conn. To be noted: for Emax: relative to the effect elicited by DAMGO. How it is done: [^35S]GTPγS functional assays were conducted using freshly thawed μ-receptor membranes (Perkin Elmer, Shelton, Conn.). Assay reactions were prepared by sequentially adding the following reagents to binding buffer (100 mM NaCl, 10 mM MgCl2, 20 mM HEPES, pH 7.4) on ice (final concentrations indicated): membrane protein (0.026 mg/mL), saponin ([…]), GDP ([…]) and [^35S]GTPγS (0.20 nM; Perkin Elmer, Shelton, Conn.). The prepared membrane solution (190 μl/well) was transferred to 96-shallow well polypropylene plates containing 10 μI of 20× concentrated stock solutions of the agonist [D-Ala^e, N-methyl-Phe^4 Gly-ol^5]-enkephalin (DAMGO) prepared in dimethyl sulfoxide (DMSO). Plates were incubated for 30 min at about 25° C. with shaking. […] Data were analyzed using the sigmoidal dose-response curve fitting functions in GraphPad PRISM v. 3.0, or an in-house function for non-linear, sigmoidal dose-response curve-fitting.
μ GTP EC50 is the concentration of a compound providing 50% of the maximal response for the compound at a μ-opioid receptor.
μ GTP Emax (%) is the maximal effect elicited by a compound relative to the effect elicited by DAMGO, a standard μ agonist. Generally, the μ GTP Emax (%) value measures the efficacy of a compound to treat or prevent pain or other Conditions.
Target sequence in this assay (P35372 whole entry, species assumed): as the sequence (P35372 whole entry) above

The target in assay [4] is T1, κ opioid receptor. In words: κ-opioid receptor [35S]GTPγS functional assay. It is filed as biochemical. More on the design: expressed in transfected cells. The note with it: for Emax: relative to the effect elicited by U69,593. How it is done: Functional [^35S]GTPγS binding assays were conducted as follows. κ opioid receptor membrane solution was prepared by sequentially adding final concentrations of 0.026 μg/μl κ membrane protein (in-house), 10 μg/mL saponin, 3 μM GDP and 0.20 nM [^35S]GTPγS to binding buffer (100 mM NaCl, 10 mM MgCl2, 20 mM HEPES, pH 7.4) on ice. The prepared membrane solution (190 μl/well) was transferred to 96-shallow well polypropylene plates containing 10 μl of 20× concentrated stock solutions of agonist prepared in DMSO. Plates were incubated for 30 min at a temperature of about 25° C. with shaking.
κ GTP EC50 is the concentration of a compound providing 50% of the maximal response for the compound at a κ receptor.
κ GTP Emax (%) is the maximal effect elicited by a compound relative to the effect elicited by U69,593.
For orientation: GTPγS is a poorly hydrolysed GTP analogue; its binding reports G protein activation.

[5] abbreviates: [3H]-U69,593 displacement, HEK-293 membranes, read-out: Ki (nM) Opioid Receptor κ.
Setting [6] is: [3H]-diprenorphine displacement, read-out: Ki (nM) Opioid Receptor μ.
Where [7] appears, read: μ-receptor membranes, read-out: GTPγS μ EC50.
Where [8] appears, read: κ membrane protein (in-house), read-out: GTPγS κ EC50.

Like-named read-outs stand apart in the source and are kept apart here. Some results are limits rather than exact numbers.

T1 sequence (P41145 whole entry): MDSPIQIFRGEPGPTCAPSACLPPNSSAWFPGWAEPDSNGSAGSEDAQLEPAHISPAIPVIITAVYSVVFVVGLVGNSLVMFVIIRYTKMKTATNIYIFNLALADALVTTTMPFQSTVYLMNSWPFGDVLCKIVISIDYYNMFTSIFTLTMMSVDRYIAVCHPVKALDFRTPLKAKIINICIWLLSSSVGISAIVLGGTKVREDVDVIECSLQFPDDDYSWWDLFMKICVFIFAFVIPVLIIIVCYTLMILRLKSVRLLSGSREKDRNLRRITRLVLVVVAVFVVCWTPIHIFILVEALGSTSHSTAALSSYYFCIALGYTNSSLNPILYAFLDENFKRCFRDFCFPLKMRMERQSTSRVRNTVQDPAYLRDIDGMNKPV

In the case of `COc1ccc2c(c1)[C@@]1(C[C@H](O)CO)CCN(CC3CC3)C(C2)[C@@H]1C` [Compound 6, (2S)-3-((6R,11R)-3-(cyclopropylmethyl)-8-methoxy-11-methyl-1,2,3,4,5,6-hexahydro-2,6-methanobenzo[d]azocin-6-yl)propane-1,2-diol], the Ki in assay [1] worked out at 46.4 ± 9.7 nM; in assay [2], 3340 ± 895 nM. In addition, the EC50 was over 20000 nM in assay [3] and 3090 nM in assay [4]. The Emax in assay [4] is 69.3%.
As for `COC(=O)/C=C/C[C@@]12CCN(CC3CC3)C(Cc3ccc(OC)cc31)[C@@H]2C` [Compound 8, (E)-methyl 4-((6S,11R)-3-(cyclopropylmethyl)-8-methoxy-11-methyl-1,2,3,4,5,6-hexahydro-2,6-methanobenzo[d]azocin-6-yl)but-2-enoate], the inhibition constant Ki in assay [1] (setting [5]) was 3.21 ± 0.76 nM; in assay [2] (setting [6]), 1810 ± 553 nM. Further, the Emax in assay [3] came to 46.3%; in assay [4] it was 99.3%. The results for the half-maximal effective concentration (EC50) in assay [3] (setting [7]) and in assay [4] (setting [8]) were 562 nM and 123 nM, respectively.
As for `COc1ccc2c(c1)[C@@]1(CCCCNCC(C)C)CCN(CC3CC3)C(C2)[C@@H]1C` [Compound 9, 4-((6S,11R)-3-(cyclopropylmethyl)-8-methoxy-11-methyl-1,2,3,4,5,6-hexahydro-2,6-methanobenzo[d]azocin-6-yl)-N-isobutylbutan-1-amine], the values for the Ki in assay [1] (setting [5]) and in assay [2] (setting [6]) were 1.35 ± 0.57 nM and 448 ± 113 nM, respectively. In addition, the maximal effect (Emax) was found to be 60% in assay [3] and 103% in assay [4]. Further, the EC50 was 643 nM in assay [3] (setting [7]) and 58.1 nM in assay [4] (setting [8]).
Regarding `COc1ccc2c(c1)[C@@]1(CCCCOCc3ccccc3)CCN(CC3CC3)C(C2)[C@@H]1C` [Compound 12, (6S,11R)-6-(4-(benzyloxy)butyl)-3-(cyclopropylmethyl)-8-methoxy-11-methyl-1,2,3,4,5,6-hexahydro-2,6-methanobenzo[d]azocine], the values for the Ki in assay [1] (setting [5]) and in assay [2] (setting [6]) were 0.27 ± 0.01 nM and 166 ± 51.8 nM, respectively. Besides, the maximal effect (Emax) was 30.8% in assay [3] and 97.7% in assay [4]. Moreover, the results for the concentration giving a half-maximal response (EC50) in assay [3] (setting [7]) and in assay [4] (setting [8]) were 580 nM and 14.4 nM, respectively.
For the compound `COc1ccc2c(c1)[C@@]1(CCCC(=O)N[C@@H](C)C(N)=O)CCN(CC3CC3)C(C2)[C@@H]1C` [Compound 14, N—((S)-1-amino-1-oxopropan-2-yl)-4-((6S,11R)-3-(cyclopropylmethyl)-8-methoxy-11-methyl-1,2,3,4,5,6-hexahydro-2,6-methanobenzo[d]azocin-6-yl)butanamide], the Ki stood at 44 ± 17.7 nM in assay [1] (setting [5]) and 4270 ± 1360 nM in assay [2] (setting [6]). For the same compound, the maximum response (Emax) in assay [3] was 64%; in assay [4], 63%. Besides, the EC50 was determined as 1300 nM in assay [3] (setting [7]) and 1050 nM in assay [4] (setting [8]).
Turning to `CC(C)N1CC[C@@]2(CCCC(N)=O)c3cc(O)ccc3C[C@@H]1[C@@H]2C` [Compound 17, 4-((2R,6R,11R)-8-hydroxy-3-isopropyl-11-methyl-1,2,3,4,5,6-hexahydro-2,6-methanobenzo[d]azocin-6-yl)butanamide], the Ki stood at 5 ± 0.53 nM in assay [1] (setting [5]) and 165 ± 6.97 nM in assay [2] (setting [6]). Moreover, the Emax amounted to 38% in assay [3] and 60.7% in assay [4]. For the same compound, the EC50 was determined as 68.2 nM in assay [3] (setting [7]) and 107 nM in assay [4] (setting [8]).
With `C[C@H]1[C@H]2Cc3ccc(O)cc3[C@]1(CCCC(N)=O)CCN2CC1CC1` [Compound 20, 4-((2R,6R,11R)-3-(cyclopropylmethyl)-8-hydroxy-11-methyl-1,2,3,4,5,6-hexahydro-2,6-methanobenzo[d]azocin-6-yl)butanamide], the Ki in assay [1] (setting [5]) stood at 0.08 ± 0.01 nM; in assay [2] (setting [6]) it was 5.38 ± 0.43 nM. The Emax in assay [3] is 19%; in assay [4], 58.2%. The concentration giving a half-maximal response (EC50) turned out to be 3.18 nM in assay [3] (setting [7]) and 6 nM in assay [4] (setting [8]).
